According to patent US20020142436A1, “Human adenylate cyclase and use therefor” (priority 1995, published 2002):
“Also recorded” adds a separate entry of the source. Read-outs that look alike come from different tables or passages of the source.

Tests used:
AtT20 cells [1] = test: ACTH release by AtT20 cells; format: cell-based, mouse
[2] = test system: HEK293 cells overexpressing human AC9; test: Ca2+/calcineurin inhibition of cAMP production in HEK293 cells overexpressing human AC9; format: cell-based
Procedure: The complete coding sequence of human AC9 was cloned into the expression vector pcDNA3. This constuct and pcDNA3 (10 μg) were each linearised by PvuI digestion prior to electroporation into HEK293 cells. Stably transfected clones were selected for resistance to G418 (Gibco) at […] in Dulbecco's modified Eagle's medium (DMEM) supplemented with 10% foetal calf serum. A total of 12 clones were expanded and over-expression of human AC9 confirmed in 9 cell lines by immunoblotting using antisera raised against a pentadecapeptide derived from the N-terminus of mouse AC9 (Paterson et al, (1995) Biochem. Biophys. Res. Commun. 214:1000-8). […] Analysis of clone 7 is reported here.
HEK-293 cells display complex intracellular Ca2+ handling mechanisms that may be controlled by cAMP and calcineurin (Lin et al, (1995) Mol. Pharmacol. 47:131-9; Gromada et al, (1995) FEBS Letts. 373:182-6; Querfurth et al, (1998) Biochem J. 334:79-86), and thus complicate the interpretation of the data. Therefore, intracellular stores of Ca^2+ were depleted to reduce the contribution of intracellular Ca^2+ pools to the intracellular free Ca^2+ signal. […] Two different Ca^2+ depletion protocols were used (Antoni et al, (1998) supra). […] The total cAMP content of the cells and the medium was determined after freeze-thawing and acetylation by radioimmunoassay (Antoni et al, (1995) J. Biol. Chem. 270:28055-61).

calcineurin [3] = test: calcineurin activity in AtT20 cells (phosphocasein method); format: biochemical, mouse; conditions: 1 μmol/l FK506, phosphocasein
AtT20 cells [4] = test: CRF-induced cAMP accumulation in AtT20 cells; format: cell-based, mouse
Procedure: Experiments for cAMP were all carried out in Hanks balanced salt solution containing 2 mM CaCl2 and 1 mM MgSO4 buffered with 25 mM HEPES pH 7.4 and supplemented with 0.25% (w/v) of bovine serum albumin. The cells were preincubated in serum free medium for 1 hour, after which blockers of phosphosdiesterase (isobutylmethylxanthine 0.5 mM (IBMX) and/or rolipram 0.1 mM) along with various other treatments were applied for 30 minutes at 37° C. Subsequently the cells were cooled to 22° C. for 5 minutes in a water bath and agonists were added for 10 minutes. The reaction was stopped by the addition of 0.2 mol/l HCl to achieve a final concentration of 0.1 mol/l (Brooker et al, (1979) Adv. in Cyclic Nucl. Res. Vol. 10, G. Brooker, P. Greengard and G. A. Robinson, Raven Press, New York, 2-34).
In some experiments cells were preincubated for 30 minutes in medium containing 2 mmol/l EGTA and no added Ca^2+, supplemented with 5 μmol/l A23187 and 2.5 μmol/l nifedipine in order to deplete rapidly mobilized cellular stores of Ca^2+. […] The rationale for this pretreatment is that calcineurin reportedly influences L-channel activity (Lai et al, (1993) J. Neurochem. 61:1333-1339; and Armstrong et al, (1987) Proc. Natl. Acad. Sci. U.S.A. 84:2518-2522), whereas the treatment regimen used here would make Ca^2+ entry independent of this regulation.
These compounds were made up in ethanol at 10^−3 mol/l and diluted with the incubation medium to the desired final concentrations. In some cases cells were preincubated with L685,818 the structural analogue of FK506 that binds to FKBP-12 and inhibits prolyl-isomerase activity but is devoid of immunosuppressant activity (Dumont et al, (1992) J. Exp. Med. 176:751-760) for 10 minutes before the addition of FK506 for 30 minutes at 37° C.

calcineurin [5] = conditions: cited from earlier work
[6] = test system: HEK293 cells transfected with AC; test: cAMP in HEK293 cells transiently transfected with AC; format: cell-based, human; conditions: L-685,818 100 μmol/l
[7] = test system: HEK293 cells stably expressing AC; test: cAMP production in HEK293 cell lines stably expressing AC; format: cell-based, human
Procedure: In particular cell lines derived from the human embryonic kidney cell line 293 (HEK293) have been generated and stably express AC. Briefly, the cells were transfected with pcDNA3 containing the full length AC DNA (clone JP 173—see Example 3) and cells were selected on the basis of resistance to G418 antibiotic (0.8 mg/ml) for 4 weeks. Individual clones of resistant cells were expanded and tested for cAMP production in response to CRF and the effects of immunosuppressants were also examined.

HEK293 cells = test: CRF-induced and unstimulated cAMP in HEK293 cells without AC (wild type, sham or pcDNA3 vector); format: cell-based, human; conditions: FK506 2 μmol/l, L-685,818 100 μmol/l
Procedure: Both expression plasmids (10 μg) were transfected into SV40-transformed monkey embryonic kidney (COS-7) cells grown in DMEM and 10% fetal bovine serum to 70% confluency in 75 cm^2 flasks following the double DEAE-dextran transfection protocol (Ishikawa et al, (1992) Nucl. Acids Res. 20:4367), while only AC cDNA was transfected into adenovirus-transformed human embryonic kidney (HEK293) cells as these express endogenous receptors for CRF (F. A. Antoni, unpublished data). In control transfections pcDNA3 vector DNA replaced the AC expression construct. […]

FKBP-12 = FKBP-12 (Homo sapiens, UniProt P62942); conditions: cited from earlier work
FKBP-12, sequence (P62942 whole entry, species assumed): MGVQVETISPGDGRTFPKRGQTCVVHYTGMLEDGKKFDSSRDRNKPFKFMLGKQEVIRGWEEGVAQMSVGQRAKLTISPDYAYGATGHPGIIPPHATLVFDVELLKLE

CC[C@@H]1/C=C(\C)[C@@H](O)[C@H](C)C[C@H](OC)[C@H]2O[C@@](O)(C(=O)C(=O)N3CCCC[C@H]3C(=O)O[C@H](/C(C)=C/[C@@H]3CC[C@@H](O)[C@H](OC)C3)[C@H](C)[C@@H](O)CC1=O)[C@H](C)C[C@@H]2OC [L685,818]
ACTH secretion, compound given alone (AtT20 cells [1]): no discernible effect; also recorded: no effect on basal ACTH secretion
antagonism of the effect of FK506 on CRF-induced ACTH release (AtT20 cells [1]; FK506 0.5 μmol/l): prevented
cAMP production in hAC9 expressing cells [2]: had no effect on cAMP production
inhibitory effect of Ca2+ on cAMP production ([2]; FK506, cyclosporin A, rapamycin 10 μM, L685,818 50 μM, PDE blockers present): failed to block the inhibitory action of Ca^2+ on cAMP production
effect on the inhibition of calcineurin activity by FK506 (calcineurin [3]): blocked the inhibitory effect of FK506 on calcineurin-mediated dephosphorylation of phosphocasein
cAMP formation, compound given alone (AtT20 cells [4]): no discernible effect
antagonism of the effect of FK506 on CRF-induced cAMP production (AtT20 cells [4]; 10 nmol/l CRF): antagonized
blockade of calcineurin (calcineurin [5]): does not block calcineurin
blockade of calcineurin (calcineurin [5]; listed as L-685,818): do not inhibit calcineurin
cAMP response to CRF ([6]; FK506 2 μmol/l): no significant effect on CRF-induced cAMP production; also recorded: no effect on CRF-induced cAMP formation when given alone
blockade of the enhancement of the CRF-induced cAMP response by FK506 ([6]; 1 nmol/l CRF): blocked the enhancement of the response to 1 nmol/l CRF by FK506
blockade of the FK506 effect on CRF-induced cAMP production [7]: blocked
cAMP levels in sham-transfected or pcDNA3-transfected cells (HEK293 cells): no effect in sham-transfected or pcDNA3-transfected cells
FKBP-12 prolyl isomerase activity (FKBP-12): potent inhibitor
